According to PMC7561186, “Rational design of balanced dual-targeting antibiotics with limited resistance” (PLoS Biology, 2020):
Values joined by “and” are separate entries in the source; they are usually repeats but may differ in a detail not shown here. Equal entries are not always repeated.

Assays:
[1] = test system: S. aureus Mu50 (VISA) ATCC 700699; assay: Neutropenic thigh infection model; assay type: in vivo, CD-1 mice; conditions: for Log CFU/g thigh: neutropenic thigh infection, Staphylococcus aureus Mu50 ATCC 700699 (VISA), individual animals
Procedure: Neutropenic mouse thigh infection experiments were performed on female CD-1 mice (Charles River Laboratories, USA). To induce neutropenia, mice received 2 doses of cyclophosphamide on days -4 and -1 with 150 mg/kg, and 100 mg/kg delivered intraperitoneally (IP), respectively. The inoculum of the testing strain, S. aureus Mu50 (VISA) ATCC 700699, was prepared from overnight agar plate cultures. To prepare bacterial inoculums, a portion of the plate was resuspended in sterile saline and adjusted to an OD of 0.12 at 625 nm. Next, the resulted bacterial suspension was further diluted to reach an infecting inoculum of 6.0×10^5 CFU per each mouse. Mice were inoculated with 100 μL of the prepared bacterial suspension via intramuscular injection into the right rear thigh. Plate counts of the inoculum were also performed in each case to confirm inoculum concentration and the actual inoculum size was 6.9×10^5 CFU/mouse. […] Test agent was then dosed via IV administration at 2, 8, 14, and 20 hours postinfection. Beginning at 2 hours, postinfection mice were dosed with either test article or positive control antibiotic. Mice receiving test agents were dosed intravenously at 10 mL/kg. Linezolid was delivered as a subcutaneous dose. Four animals were dosed per group. One group of 4 mice were euthanized at initiation of therapy (T = 2 hours) and CFUs determined. All remaining mice were euthanized at 26 hours postinfection. At termination, thighs were aseptically excised, weighed, and homogenized to a uniform consistency in 2 mL of sterile saline. The homogenate was serially diluted and plated on bacterial growth media. The CFUs were enumerated after overnight incubation.

[2] = test system: Staphylococcus epidermidis; assay: MIC, broth microdilution (CLSI); assay type: cell-based; conditions: Staphylococcus epidermidis ATCC 51625, MRSE
Procedure: MICs were determined using a standard serial broth microdilution technique according to the CLSI guidelines. Briefly, bacterial strains were inoculated onto MHBII agar plates and were grown overnight at 37 °C. Next, 3 individual colonies from each strain were inoculated into 1 mL MHBII medium and propagated at 37 °C, 250 rpm overnight. In the cases of Enterococcus and Streptococcus sp., cells were plated to BHI agar plates, and BHI broth was used to determine MICs. […] Following dilutions, each well was seeded with 5×10^4 bacterial cells. All measurements were performed in 3 parallel replicates and to avoid possible edge effects in microwell plates, side rows (A and H) were filled with sterile medium. Following inoculations, plates were covered with lids and wrapped in polyethylene plastic bags to minimize evaporation but allow for O2 transfer. Plates were incubated at 37 °C under continuous shaking at 150 rpm for 18 hours. After incubation, OD600 of each well was measured using a BioTek Synergy 2 microplate reader.

Row | Compound | Log CFU/g thigh ([1]; 50 mg/kg) | MIC [2] [µg/mL] | antibacterial activity after intravenous administration ([1]; neutropenic murine thigh infection, S. aureus VISA, comparable to linezolid, in words) | Log CFU/g thigh ([1]; 10 mg/kg) | Log CFU/g thigh ([1]; 25 mg/kg)
1 | CC(=O)NC[C@H]1CN(c2ccc(N3CCOCC3)c(F)c2)C(=O)O1 [Linezolid] | 5.65 Log CFU/g thigh and 6.12 Log CFU/g thigh and 4.95 Log CFU/g thigh | – | – | – | –
2 | Cc1[nH]c(C(=O)Nc2nc3ccc(C(=O)O)cc3s2)c(Cl)c1Cl [ULD1] | 5.41 Log CFU/g thigh and 5.69 Log CFU/g thigh | 0.0625 | potent antibacterial activity | 7.54 Log CFU/g thigh and 7.91 Log CFU/g thigh and 8.09 Log CFU/g thigh and 8.46 Log CFU/g thigh | 6.73 Log CFU/g thigh and 6.88 Log CFU/g thigh and 7.28 Log CFU/g thigh and 6.95 Log CFU/g thigh
